Holding throughout (experiment): NCI-60 cell line screen, 48 h
Assay [1] deals with NCI-H23 lung.
Assay [2] relates to 786-0 renal.
For assay [3], the system named is PC-3 prostate.
In assay [4] the test system is K-562 leukemia.
The subject of assay [5] is NCI-H226 lung.
Assay [6] has as its system DU-145 prostate.
Assay [7] deals with OVCAR-4 ovarian.
The test system of assay [8] is LOX IMVI melanoma.
The subject of assay [9] is NCI-H522 lung.
For assay [10], the system named is UACC-62 melanoma.

Each structure is given as a SMILES string.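 Tested at 5 concentrations; 48 h exposure; 96-well plates; endpoints linearly interpolated, else capped at highest concentration. The concentration for full growth arrest is given as TGI.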 Where a SMILES comes first, the peptide text is derived from it. [ ]: non-standard residue; d: D form. The star is where a group is joined. ξ: configuration not given here. NMeY = CN[C@@H](Cc1ccc(O)cc1)C(=O)O; Cbz = O=C(OCc1ccccc1)*; ξA = CC(N)C(=O)O Where only a bound is given, the exact number is not on record here.

The values below come from PubChem BioAssay (NCI).

As for `c1ccc2c(c1)CC1c3[nH]c4ccccc4c3CCN21` (stereo not given), the TGI in [1], in [2], in assay [3], in assay [4], in [5] and in [6] was > 10 µM in each case. Moreover, the TGI in [7], in [8], in [9] and in [10] was > 10 µM in each case.
Consider `COc1ccc(C[C@@H](C(=O)NCC(N)=O)N(C)C(=O)[C@@H]2CCCN2C(=O)[C@H](CC(C)C)NC(=O)C(C)NC(=O)OCc2ccccc2)cc1` (stereo not given in full) (Cbz-[ξA]LP[NMeY](Me)G-NH2), for which the TGI in assay [1], in [2], in assay [3], in [4], in assay [5] and in [6] was > 100 µM throughout. Moreover, the TGI in assay [7], in assay [8], in assay [9] and in assay [10] was > 100 µM in each case.
Take `CN(C)c1ccc(C(=NNC(=O)c2cc3ccccc3[nH]2)c2ccc(N(C)C)cc2)cc1`: the TGI in assay [1] was > 32.9 µM; in assay [2] it was 19.8 µM; in assay [3], > 66.8 µM; in assay [4], > 100 µM; in [5] it was > 100 µM; in [6], > 100 µM. Further, the TGI was > 100 µM in assay [7], > 100 µM in [8], 2.53 µM in assay [9] and > 54 µM in assay [10].
In the case of `O=C1CCC2(CC1)Cc1ccccc1C2O` (stereo not given), the TGI in [1], in [2], in assay [3], in [4], in [5] and in assay [6] was > 100 µM in each case. In addition, the TGI in [7], in assay [8], in assay [9] and in assay [10] was > 100 µM throughout.
With `O=C1c2ccccc2NC2C(O)c3ccccc3N12` (stereo not given), the TGI is 84.3 µM in assay [1]; > 100 µM in assay [2]; > 100 µM in assay [3]; > 100 µM in assay [4]; > 100 µM in [5]; > 100 µM in assay [6]. Also, the TGI in assay [7] is > 100 µM; in assay [8] it was > 100 µM; in assay [9], > 100 µM; in assay [10], 56.8 µM.
In the case of `O=C1C/C(=C\O)C(=O)c2ccccc2N1`, the TGI in assay [1], in assay [2], in assay [3], in [4], in assay [5] and in assay [6] was > 100 µM each time. In addition, the TGI in assay [7], in [8], in [9] and in assay [10] was > 100 µM in each case.
Regarding `COc1cn2c(cc1=O)COc1ccc(-c3ccccc3)cc1-2`, the TGI in assay [1], in [2], in assay [3], in assay [4], in assay [5] and in assay [6] was > 100 µM in each case. Moreover, the TGI was > 100 µM in [7], > 85.5 µM in assay [8], > 100 µM in assay [9] and > 100 µM in assay [10].
As to `CCOC(=O)c1cc(-c2ccc(OC)c(OC)c2)c[nH]1`, the TGI in assay [1], in [2], in assay [3], in [4], in assay [5] and in [6] was > 10 µM each time. For the same compound, the TGI in assay [7], in [8], in assay [9] and in assay [10] was > 10 µM in each case.
On to `NC(N)=N/N=C(\c1ccc(Cl)cc1)C1CC1`, for which the TGI stood at 73.1 µM in [1]; 32.5 µM in [2]; 34.9 µM in [3]; 55.7 µM in assay [4]; 33.2 µM in assay [5]; 57.4 µM in assay [6]. In addition, the TGI in assay [7] is > 100 µM; in [8], 30 µM; in assay [9], 31.3 µM; in assay [10], 29.3 µM.
Take `O=C(c1ccccc1F)c1c(NCc2ccccc2)c(=O)c1=O`: the TGI in assay [1], in assay [2], in assay [3], in assay [4], in [5] and in [6] was > 100 µM in each case. For the same compound, the TGI in [7], in assay [8], in [9] and in assay [10] was > 100 µM each time.
In the case of `CCCCCCCCCCCCOC1C(COCCN2CCCC2)OC2OC(C)(C)OC21` (stereo not given), the TGI in assay [1] worked out at 3.48 µM; in assay [2], 3.08 µM; in assay [3] it was 3.16 µM; in [4], 2.7 µM; in assay [5], 7.62 µM; in assay [6] it was 23.1 µM. The TGI in assay [7] was found to be 7.6 µM; in [8] it was 2.77 µM; in [9], 2.53 µM; in assay [10], 3.36 µM.
In the case of `OC(CC(c1ccccc1)c1ccc(Cl)cc1)c1ccc(Cl)cc1` (stereo not given), the TGI is 87.8 µM in assay [1]; > 100 µM in assay [2]; > 100 µM in assay [3]; > 100 µM in assay [4]; 97.5 µM in [5]; > 100 µM in assay [6]. The TGI in assay [7] is > 100 µM; in assay [8], 77.2 µM; in assay [9], 69.1 µM; in assay [10], > 100 µM.
`Cc1cc(S(=O)(=O)Nc2n[nH]c(Nc3ccccc3)n2)c(S)cc1Cl`: the TGI in assay [1], in assay [2], in assay [3], in [4], in [5] and in [6] was > 10 µM each time. The TGI in [7], in assay [8], in assay [9] and in assay [10] was > 10 µM each time.
Turning to `Cc1ccc(-c2cc(-c3ccc(Cl)cc3)nc(/N=C3\C(=O)N(CN4CCCCC4)c4ccc(Cl)cc43)n2)cc1`, the TGI in [1] is 51.5 µM; in assay [2], 44.6 µM; in [3] it was > 100 µM; in assay [4], > 100 µM; in [5], > 100 µM; in [6], > 100 µM. In addition, the TGI was > 100 µM in assay [7], 53 µM in assay [8], 27.8 µM in assay [9] and > 100 µM in [10].
